For six compounds, MIC results are on record in patent publication US4605744A, “Imidazole derivatives” (Hoffmann-La Roche Inc., priority 1985, dated 1986).

Where a name gives a salt, the structure may show the parent alone. Read-outs that look alike come from different tables or passages of the source.

Assay in all cases: In vitro antibacterial activity (MIC)
Common to all, as to format: cell-based

One test deals with E. coli 503-455. The procedure, abridged: (§1)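 Mueller-Hinton broth carries the compound at 128–0.008 μg/ml; diluted drug may be used fresh or stored frozen at -10° to -70° C before use. Wells are seeded with a 10^-2 dilution of overnight culture and incubated overnight at 37° C.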
The subject of another test is S. marcescens S5. The procedure, abridged: as §1
The test system of a further test is P. vulgaris 100. As to conditions: P. vulgaris 100. The procedure, abridged:
as §1

In another test the test system is S. marcescens SM. The procedure, abridged: as §1
The next test deals with S. aureus 1059B. The procedure, abridged: as §1
The subject of a further test is P. aeruginosa 8780. As to conditions: P. aeruginosa 8780. The procedure, abridged:
as §1

The next test deals with E. cloacae 6951. The procedure, abridged:
as §1

Another test relates to S. marcescens S2. As to conditions: S. marcescens S2. The procedure, abridged: as §1
Another test relates to K. pneumoniae 8357. The procedure, abridged: as §1
A further test deals with P. mirabilis 620A. The following applies: P. mirabilis 620A. The procedure, abridged:
as §1

Another test concerns P. rettgeri ATCC 9250. The procedure, abridged: as §1
The next test concerns E. coli R-563. The procedure, abridged: as §1
The subject of another test is P. aeruginosa 5700. The procedure, abridged:
as §1

The next test concerns K. pneumoniae 503-964. The following applies: K. pneumoniae 503-964. The procedure, abridged:
as §1

Another test has as its system P. mirabilis 190. The procedure, abridged: as §1
Another test relates to P. aeruginosa Stone 130. The procedure, abridged: as §1
The subject of a further test is S. faecalis C1. The following applies: S. faecalis C1. The procedure, abridged: as §1
For the next test, the system named is K. pneumoniae A. The following applies: K. pneumoniae A. The procedure, abridged: as §1
The next test deals with E. aerogenes 8. The procedure, abridged: as §1
The subject of the next test is P. mirabilis 90. The procedure, abridged: as §1
The subject of the next test is E. cloacae P99. The procedure, abridged:
as §1

The subject of another test is P. aeruginosa 503-820. As to conditions: Pseudomonas aeruginosa, 503820; P. aeruginosa 503-820; read-out: MIC. The procedure, abridged: as §1
[1] abbreviates: Serratia marcescens, S5, S. marcescens S5, read-out: MIC.
[2] abbreviates: Proteus vulgaris, read-out: MIC.
[3] abbreviates: Serratia marcescens, read-out: MIC.
[4] abbreviates: Staphylococcus aureus, read-out: MIC.
Setting [5] is: Enterobacter cloacae, 6951, E. cloacae 6951, read-out: MIC.
Setting [6] is: Klebsiella pneumoniae, 8357, K. pneumoniae 8357, read-out: MIC.
Setting [7] is: Proteus mirabilis, 620A, read-out: MIC.
Setting [8] is: Providencia rettgeri, ATCC9250, P. rettgeri ATCC 9250, read-out: MIC.
[9] abbreviates: Escherichia coli, R563, E. coli R-563, read-out: MIC.
Where [10] appears, read: Pseudomonas aeruginosa, 5700, P. aeruginosa 5700, read-out: MIC.
Setting [11] is: Klebsiella pneumoniae, 503964, read-out: MIC.
[12] abbreviates: Proteus mirabilis, 190, P. mirabilis 190, read-out: MIC.
[13] abbreviates: Klebsiella pneumoniae, read-out: MIC.
The mark [14] stands for this setting: Klebsiella aerogenes, E. aerogenes 8, read-out: MIC.
[15] abbreviates: Proteus mirabilis, 90, P. mirabilis 90, read-out: MIC.
Where [16] appears, read: Escherichia coli, 503455, E. coli 503-455, read-out: MIC.
Setting [17] is: Enterobacter cloacae, P99, E. cloacae P99.
Setting [18] is: Klebsiella aerogenes, 8, E. aerogenes 8.

Usually MIC stands for the least concentration at which growth counts as inhibited. Regarding `CC1(C)S[C@@H]2[C@H](N=CN3CCCC(CCn4ccnc4)CC3)C(=O)N2[C@H]1C(=O)O.Cl.O` (single isomer, unassigned) [D], the MIC in the test on E. coli 503-455 (E. coli 503-455) was 1 µg/mL; with S. marcescens S5 (S. marcescens S5) it was 2 µg/mL; against P. vulgaris 100 it was 16 µg/mL; against S. marcescens SM it was 0.25 µg/mL; in the test on S. aureus 1059B, 128 µg/mL; in the test with P. aeruginosa 8780, greater than 128 µg/mL. The MIC in the test on E. cloacae 6951 (E. cloacae 6951) came out at 16 µg/mL; against S. marcescens S2, 0.5 µg/mL; in the test on K. pneumoniae 8357 (K. pneumoniae 8357), 0.25 µg/mL; against P. mirabilis 620A, 64 µg/mL; with P. rettgeri ATCC 9250 (P. rettgeri ATCC 9250) it was 0.5 µg/mL; against E. coli R-563 (E. coli R-563), 0.125 µg/mL. Further, the MIC in the test on P. aeruginosa 5700 (P. aeruginosa 5700) was 0.5 µg/mL; against K. pneumoniae 503-964, 0.25 µg/mL; against P. mirabilis 190 (P. mirabilis 190), 0.25 µg/mL; in the test with P. aeruginosa Stone 130, greater than 128 µg/mL; in the test on S. faecalis C1 it was greater than 128 µg/mL; in the test with K. pneumoniae A, 0.031 µg/mL. Also, the MIC with E. aerogenes 8 (E. aerogenes 8) was 128 µg/mL; in the test on P. mirabilis 90 (P. mirabilis 90), 1 µg/mL; against E. cloacae P99 (E. cloacae P99), 0.125 µg/mL.

Turning to `CC1(C)S[C@@H]2[C@H](N=CN3CCC(CCn4ccnc4)CC3)C(=O)N2[C@H]1C(=O)O` [B, [2S-2alpha,5alpha,6beta)]-6-[[[4-[2-(1H-imidazol-1-yl)ethyl]-1-piperidinyl]methylene]amino]-3,3-dimethyl-7-oxo-4-thia-1-azabicyclo[3.2.0]heptane-2-carboxylic acid hydrate hydrochloride], the MIC was 1 µg/mL in the test with E. coli 503-455 (Escherichia coli, 503455); 2 µg/mL with S. marcescens S5 (setting [1]); 8 µg/mL in the test with P. vulgaris 100 (setting [2]); 0.25 µg/mL in the test with S. marcescens SM (setting [3]); greater than 128 µg/mL in the test with S. aureus 1059B (setting [4]); greater than 128 µg/mL in the test on P. aeruginosa 8780 (Pseudomonas aeruginosa, read-out: MIC). The MIC with E. cloacae 6951 (setting [5]) is 16 µg/mL; in the test with S. marcescens S2 (setting [3]) it was 0.5 µg/mL; in the test on K. pneumoniae 8357 (setting [6]), 0.25 µg/mL; in the test on P. mirabilis 620A (setting [7]), greater than 128 µg/mL; in the test with P. rettgeri ATCC 9250 (setting [8]) it was 0.5 µg/mL; with E. coli R-563 (setting [9]), 8 µg/mL. In addition, the MIC is greater than 128 µg/mL with P. aeruginosa 503-820; greater than 128 µg/mL with P. aeruginosa 5700 (setting [10]); 0.25 µg/mL in the test with K. pneumoniae 503-964 (setting [11]); 0.5 µg/mL in the test with P. mirabilis 190 (setting [12]); greater than 128 µg/mL in the test on S. faecalis C1 (Enterococcus faecalis, read-out: MIC); 0.062 µg/mL in the test on K. pneumoniae A (setting [13]). The values for the MIC in the test with E. aerogenes 8 (setting [14]) and in the test with P. mirabilis 90 (setting [15]) were 0.25 µg/mL and 2 µg/mL, respectively.

For the compound `CC1(C)S[C@@H]2[C@H](N=CN3CCCC(c4ncc[nH]4)C3)C(=O)N2[C@H]1C(=O)O` (stereo partly drawn) [P, [2S-(2alpha,5alpha,6beta)]-6-[[[3-(1H-imidazol-2-yl)-1-piperidinyl]methylene]amino]-3,3-dimethyl-7-oxo-4-thia-1-azabicyclo[3.2.0]heptane-2-carboxylicacid hydrochloride], the MIC was 64 µg/mL with E. coli 503-455 (setting [16]); greater than 128 µg/mL with S. marcescens S5 (setting [1]); 128 µg/mL in the test with P. vulgaris 100 (setting [2]); 8 µg/mL in the test with S. marcescens SM (setting [3]); 64 µg/mL in the test on S. aureus 1059B (setting [4]); greater than 128 µg/mL in the test on E. cloacae 6951 (setting [5]). In addition, the MIC in the test with S. marcescens S2 (setting [3]) was 8 µg/mL; with K. pneumoniae 8357 (setting [6]), 8 µg/mL; with P. mirabilis 620A (setting [7]), greater than 128 µg/mL; in the test on P. rettgeri ATCC 9250 (setting [8]) it was 4 µg/mL; with E. coli R-563 (setting [9]) it was 2 µg/mL; in the test with P. aeruginosa 5700 (setting [10]), 8 µg/mL. Further, the MIC was found to be 8 µg/mL with K. pneumoniae 503-964 (setting [11]); 4 µg/mL with P. mirabilis 190 (setting [12]); 2 µg/mL in the test with K. pneumoniae A (setting [13]); 16 µg/mL in the test on E. aerogenes 8 (setting [14]); 8 µg/mL with P. mirabilis 90 (setting [15]); 8 µg/mL with E. cloacae P99 (setting [17]).

Turning to `CC1(C)S[C@@H]2[C@H](N=CN3CCC(Cc4ncc[nH]4)CC3)C(=O)N2[C@H]1C(=O)O` [Q, [2S-(2alpha,5alpha,6beta)]-6-[[[4-(1H-imidazol-2-yl-methyl)-1-piperidinyl]methylene]amino]-3,3-dimethyl-7-oxo-4-thia-1-azabicyclo[3.2.0]heptane-2-carboxylic acid hydrochloride], the MIC was 1 µg/mL in the test on E. coli 503-455 (setting [16]); 0.5 µg/mL in the test with S. marcescens S5 (setting [1]); 1 µg/mL with P. vulgaris 100 (setting [2]); 0.125 µg/mL in the test on S. marcescens SM (setting [3]); 128 µg/mL in the test on S. aureus 1059B (setting [4]); 16 µg/mL in the test on E. cloacae 6951 (setting [5]). For the same compound, the MIC with S. marcescens S2 (setting [3]) is 0.125 µg/mL; with K. pneumoniae 8357 (setting [6]), 4 µg/mL; with P. mirabilis 620A (setting [7]), greater than 128 µg/mL; with P. rettgeri ATCC 9250 (setting [8]), 16 µg/mL; in the test on E. coli R-563 (setting [9]) it was 0.062 µg/mL; with K. pneumoniae 503-964 (setting [11]) it was 0.5 µg/mL. Besides, the MIC with P. mirabilis 190 (setting [12]) is 0.25 µg/mL; in the test on P. aeruginosa Stone 130 (Pseudomonas aeruginosa, STONE130, read-out: MIC) it was greater than 128 µg/mL; with K. pneumoniae A (setting [13]), 0.062 µg/mL; in the test with E. aerogenes 8 (setting [14]), 0.125 µg/mL; in the test on P. mirabilis 90 (setting [15]), 0.5 µg/mL; in the test on E. cloacae P99 (setting [17]), 8 µg/mL.

With `CC1(C)S[C@@H]2[C@H](N=CN3CCC(CCCn4ccnc4CO)CC3)C(=O)N2[C@H]1C(=O)O` [R, [2S-(2alpha,5alpha,6beta)]-6-[[[4-[3-[2-(hydroxymethyl)-1H-imidazol-1-yl]propyl-1-piperidinyl]methylene]amino]-3,3-dimethyl-7-oxo-4-thia-1-azabicyclo[3.2.0]heptane-2-carboxylic acid hydrochloride 1.1 molar hydrate], the MIC with E. coli 503-455 (setting [16]) is 0.5 µg/mL; in the test with S. marcescens S5 (setting [1]) it was 1 µg/mL; in the test with P. vulgaris 100 (setting [2]), 2 µg/mL; in the test on S. marcescens SM (setting [3]), 0.062 µg/mL; with S. aureus 1059B (setting [4]) it was 64 µg/mL; with E. cloacae 6951 (setting [5]), 8 µg/mL. Also, the MIC with S. marcescens S2 (setting [3]) is 0.125 µg/mL; with K. pneumoniae 8357 (setting [6]), 0.062 µg/mL; in the test on P. mirabilis 620A (setting [7]), 64 µg/mL; with P. rettgeri ATCC 9250 (setting [8]), 0.062 µg/mL; against E. coli R-563 (Escherichia coli, R563), 4 µg/mL; with P. aeruginosa 503-820 it was 128 µg/mL. In addition, the MIC is 0.016 µg/mL with K. pneumoniae 503-964 (setting [11]); 0.062 µg/mL in the test with P. mirabilis 190 (setting [12]); less than 0.008 µg/mL in the test with K. pneumoniae A (setting [13]); 32 µg/mL with E. aerogenes 8 (setting [18]); 0.5 µg/mL in the test with P. mirabilis 90 (setting [15]); 0.062 µg/mL with E. cloacae P99 (setting [17]).

On to `CN(C)C=Nc1nccn1CCCC1CCN(C=N[C@@H]2C(=O)N3[C@@H]2SC(C)(C)[C@@H]3C(=O)O)CC1` [S, [2S-(2alpha,5alpha,6beta)]-6-[[[4-[3-[2-[[(dimethylamino)methylene]amino]-1H-imidazol-1-yl]propyl]-1-piperidinyl]methylene]amino]-3,3-dimethyl-7-oxo-4-thia-1-azabicyclo[3.2.0]heptane-2-carboxylic acid 1.7 molar hydrochloride 2.6 molar hydrate], for which the MIC was found to be 1 µg/mL in the test on E. coli 503-455 (Escherichia coli, 503455); 4 µg/mL in the test with S. marcescens S5 (setting [1]); 8 µg/mL with P. vulgaris 100 (setting [2]); 2 µg/mL in the test with S. marcescens SM (setting [3]); 64 µg/mL in the test on S. aureus 1059B (setting [4]); 8 µg/mL with E. cloacae 6951 (setting [5]). Further, the MIC with S. marcescens S2 (setting [3]) was 2 µg/mL; with K. pneumoniae 8357 (setting [6]), 0.5 µg/mL; in the test with P. mirabilis 620A (setting [7]) it was greater than 128 µg/mL; in the test with P. rettgeri ATCC 9250 (setting [8]) it was 0.25 µg/mL; against E. coli R-563 (Escherichia coli, R563), 8 µg/mL; in the test on K. pneumoniae 503-964 (setting [11]), 0.5 µg/mL. In addition, the minimal inhibitory concentration (MIC) in the test on P. mirabilis 190 (setting [12]) amounted to 1 µg/mL; in the test on K. pneumoniae A (setting [13]), 0.5 µg/mL; with E. aerogenes 8 (setting [18]), 32 µg/mL; in the test with P. mirabilis 90 (setting [15]) it was 4 µg/mL; with E. cloacae P99 (setting [17]) it was 1 µg/mL.
